Measured values from the NIST ThermoML archive (doi:10.1016/j.jct.2016.08.005).
± gives the expanded uncertainty stated by the source.

Details: Liquid, Vibrating tube method

Cc1ccc(C)s1 [2,5-dimethylthiophene]
mass density [kg/m3]
Details | 313.15 K | 318.15 K | 323.15 K | 328.15 K | 333.15 K | 338.15 K
100 kPa | 964.84 ± 0.5 | 959.75 ± 0.5 | 954.64 ± 0.5 | 949.46 ± 0.5 | 944.28 ± 0.5 | 939.09 ± 0.5
2000 kPa | 966.6 ± 0.5 | 961.52 ± 0.5 | 956.46 ± 0.5 | 951.34 ± 0.5 | 946.2 ± 0.5 | 941.08 ± 0.5
5000 kPa | 969.22 ± 0.5 | 964.24 ± 0.5 | 959.26 ± 0.5 | 954.21 ± 0.5 | 949.16 ± 0.5 | 944.14 ± 0.5
7000 kPa | 970.97 ± 0.5 | 966 ± 0.5 | 961.09 ± 0.5 | 956.1 ± 0.5 | 951.09 ± 0.5 | 946.13 ± 0.5
10000 kPa | 973.5 ± 0.5 | 968.6 ± 0.5 | 963.75 ± 0.5 | 958.85 ± 0.5 | 953.92 ± 0.5 | 949.02 ± 0.5
15000 kPa | 977.58 ± 0.5 | 972.8 ± 0.5 | 968.05 ± 0.5 | 963.27 ± 0.5 | 958.46 ± 0.5 | 953.67 ± 0.51
20000 kPa | 981.52 ± 0.5 | 976.83 ± 0.5 | 972.19 ± 0.5 | 967.5 ± 0.5 | 962.79 ± 0.51 | 958.14 ± 0.51
25000 kPa | 985.31 ± 0.5 | 980.72 ± 0.5 | 976.16 ± 0.5 | 971.57 ± 0.5 | 966.97 ± 0.51 | 962.41 ± 0.51
30000 kPa | 988.97 ± 0.5 | 984.44 ± 0.5 | 979.99 ± 0.5 | 975.49 ± 0.5 | 970.97 ± 0.51 | 966.51 ± 0.51
35000 kPa | 992.49 ± 0.5 | 988.06 ± 0.5 | 983.67 ± 0.5 | 979.25 ± 0.5 | 974.83 ± 0.51 | 970.46 ± 0.51
40000 kPa | 995.92 ± 0.5 | 991.55 ± 0.5 | 987.24 ± 0.5 | 982.9 ± 0.5 | 978.55 ± 0.5 | 974.25 ± 0.51
45000 kPa | 999.23 ± 0.5 | 994.93 ± 0.5 | 990.69 ± 0.5 | 986.42 ± 0.5 | 982.15 ± 0.5 | 977.91 ± 0.51
50000 kPa | 1002.44 ± 0.5 | 998.2 ± 0.5 | 994.03 ± 0.5 | 989.84 ± 0.5 | 985.62 ± 0.5 | 981.46 ± 0.51
55000 kPa | 1005.56 ± 0.5 | 1001.39 ± 0.5 | 997.27 ± 0.5 | 993.13 ± 0.5 | 988.98 ± 0.5 | 984.88 ± 0.5
60000 kPa | 1008.58 ± 0.5 | 1004.46 ± 0.5 | 1000.41 ± 0.5 | 996.35 ± 0.5 | 992.25 ± 0.5 | 988.2 ± 0.5
65000 kPa | 1011.53 ± 0.5 | 1007.46 ± 0.5 | 1003.46 ± 0.5 | 999.44 ± 0.5 | 995.41 ± 0.5 | 991.43 ± 0.5
